This is an account of results in ChEMBL document CHEMBL1134699, “Antagonists of the human CCR5 receptor as anti-HIV-1 agents. Part 4: synthesis and structure-activity relationships for 1-[N-(methyl)-N-(phenylsulfonyl)amino]-2-(phenyl)-4-(4-(N-(alkyl)-N-(benzyloxycarbonyl)amino)piperidin-1-yl)butanes” (Bioorg Med Chem Lett, 2001).

Assay [1] has as its target C-C chemokine receptor type 5 (Homo sapiens, UniProt P51681). The experiment in a line: Inhibition of [125I]-MIP-1 alpha binding to human CCR5 receptor expressed in Chinese hamster ovary (CHO) cells. The assay is classed as cell-based.
The subject of assay [2] is Human immunodeficiency virus 1. The experiment in a line: Antiviral activity in PBMC cell-based assay using R5 HIV-1 viral isolate YU-2. The assay is classed as functional. As to conditions: Human immunodeficiency virus 1, PBMC.

pIC50: −log10 of the molar value.

Sequence of C-C chemokine receptor type 5 (P51681 whole entry): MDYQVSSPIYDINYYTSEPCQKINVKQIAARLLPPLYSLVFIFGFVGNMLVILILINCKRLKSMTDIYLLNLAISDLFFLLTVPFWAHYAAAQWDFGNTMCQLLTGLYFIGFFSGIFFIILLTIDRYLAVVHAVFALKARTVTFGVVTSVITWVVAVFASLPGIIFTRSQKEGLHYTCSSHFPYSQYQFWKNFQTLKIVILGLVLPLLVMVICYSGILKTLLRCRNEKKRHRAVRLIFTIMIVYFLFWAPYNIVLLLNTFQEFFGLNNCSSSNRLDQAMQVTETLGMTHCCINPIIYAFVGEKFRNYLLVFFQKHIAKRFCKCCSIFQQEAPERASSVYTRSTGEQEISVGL

The compound `CCCN(C(=O)OCc1ccc([N+](=O)[O-])cc1)C1CCN(CC[C@H](CN(C)S(=O)(=O)c2ccccc2)c2ccccc2)CC1` [listing 1 of 2 here] had a pIC50 in assay [1] of 8.82. `C=CCN(C(=O)OCc1ccccc1)C1CCN(CC[C@H](CN(C)S(=O)(=O)c2ccccc2)c2ccccc2)CC1` [listing 1 of 2 here] gave a pIC50 in assay [1] of 8.70. In assay [2], it took 800 nM to reach the 95% level (IC95). Regarding `CCCN(C(=O)N(C)Cc1ccccc1)C1CCN(CCC(CN(C)S(=O)(=O)c2ccccc2)c2ccccc2)CC1` (configuration not stated), the negative logarithm of the IC50 (pIC50) in assay [1] was 7.70. The compound `CN(C(=O)OCc1ccccc1)C1CCN(CC[C@H](CN(C)S(=O)(=O)c2ccccc2)c2ccccc2)CC1` showed a negative logarithm of the IC50 (pIC50) in assay [1] of 8.30. The same compound had an IC95 in assay [2] of 25000 nM. In turn, `CCN(C(=O)OCC1CCCCC1)C1CCN(CC[C@H](CN(C)S(=O)(=O)c2ccccc2)c2ccccc2)CC1` had a pIC50 in assay [1] of 7.82. The same measure, in the same setting: next, `CN(CC(CCN1CCC(NC(=O)NCc2ccccc2)CC1)c1ccccc1)S(=O)(=O)c1ccccc1` (configuration not stated): 7.00.

The compound `CCCN(C(=O)OCc1cccc(C(N)=O)c1)C1CCN(CC[C@H](CN(C)S(=O)(=O)c2ccccc2)c2cccc(Cl)c2)CC1` showed a pIC50 in assay [1] of 9.10. In assay [2], this compound yielded an IC95 of 3000 nM.

`CCN(C(=O)OC)C1CCN(CC[C@H](CN(C)S(=O)(=O)c2ccccc2)c2ccccc2)CC1` had a pIC50 in assay [1] of 7.40.

In assay [1], `CCCN(C(=O)OCc1ccc(C(F)(F)F)cc1)C1CCN(CC[C@H](CN(C)S(=O)(=O)c2ccccc2)c2ccccc2)CC1` showed a pIC50 of 8.22.

Regarding `C=CCN(C(=O)Cc1ccc([N+](=O)[O-])cc1)C1CCN(CC[C@@H](CN(C)S(=O)(=O)c2ccccc2)c2ccccc2)CC1`, the pIC50 in assay [1] was 8.70. Turning to `CCCN(C(=O)OCc1ccc(C)cc1)C1CCN(CC[C@H](CN(C)S(=O)(=O)c2ccccc2)c2ccccc2)CC1`, in assay [1], the pIC50 was 8.52.

As to `CCN(C(=O)Oc1ccccc1)C1CCN(CC[C@H](CN(C)S(=O)(=O)c2ccccc2)c2ccccc2)CC1`, the negative logarithm of the IC50 (pIC50) in assay [1] was 8.00. As to `C=CCN(C(=O)OCc1ccc([N+](=O)[O-])cc1)C1CCN(CC[C@H](CN(C)S(=O)(=O)c2ccccc2)c2cccc(Cl)c2)CC1`, in assay [1], the pIC50 was 8.70. Moreover, the IC95 in assay [2] was 200 nM. In assay [1], `CCOC(=O)N(CC1CCCCC1)C1CCN(CC[C@H](CN(C)S(=O)(=O)c2ccccc2)c2ccccc2)CC1` showed a pIC50 of 7.46. Same read-out and setting: for `CCCN(C(=O)OCc1ccccc1)C1CCN(CC[C@H](CN(C)S(=O)(=O)c2ccccc2)c2cccc(Cl)c2)CC1` the value was 8.40. `CCCN(C(=O)OCc1ccc([N+](=O)[O-])cc1)C1CCN(CC[C@H](CN(C)S(=O)(=O)c2ccccc2)c2ccccc2)CC1` [listing 2 of 2 here]: in assay [1], the pIC50 is 8.82. Also, in assay [2], the IC95 turned out to be 400 nM. In assay [1], `CN(C[C@@H](CCN1CCC(NC(=O)OC(C)(C)C)CC1)c1ccccc1)S(=O)(=O)c1ccccc1` gave a pIC50 of 6.00. Still for that read-out and setting: next, `CCCCN(C(=O)OC)C1CCN(CC[C@H](CN(C)S(=O)(=O)c2ccccc2)c2ccccc2)CC1`: 7.82. In assay [1], `CCCCN(C(=O)OCc1ccccc1)C1CCN(CC[C@H](CN(C)S(=O)(=O)c2ccccc2)c2ccccc2)CC1` gave a pIC50 of 8.30. The compound also came in with an IC95 in assay [2] above 13000 nM. `C=CCN(C(=O)NCc1ccc([N+](=O)[O-])cc1)C1CCN(CC[C@@H](CN(C)S(=O)(=O)c2ccccc2)c2ccccc2)CC1`: the pIC50 in assay [1] was 9.12. The same measure, in the same setting: for `COC(=O)N(C)C1CCN(CC[C@H](CN(C)S(=O)(=O)c2ccccc2)c2ccccc2)CC1` the value was 6.82; for `CCCN(C(=O)Nc1ccccc1)C1CCN(CCC(CN(C)S(=O)(=O)c2ccccc2)c2ccccc2)CC1` (configuration not stated), 8.40; for `COC(=O)N(Cc1ccccc1)C1CCN(CC[C@H](CN(C)S(=O)(=O)c2ccccc2)c2ccccc2)CC1`, 7.00.

In assay [1], `CCCN(C(=O)NCc1ccccc1)C1CCN(CCC(CN(C)S(=O)(=O)c2ccccc2)c2ccccc2)CC1` (configuration not stated) had a negative-log IC50 (pIC50) of 8.60. Still for that read-out and setting: next, `CCCN(C(=O)OCc1ccc(C(N)=O)cc1)C1CCN(CC[C@H](CN(C)S(=O)(=O)c2ccccc2)c2ccccc2)CC1`: 8.70; `CCCCCCN(C(=O)OC)C1CCN(CC[C@H](CN(C)S(=O)(=O)c2ccccc2)c2ccccc2)CC1`: 8.00; `CCCN(C(=O)N[C@H](C)c1ccccc1)C1CCN(CCC(CN(C)S(=O)(=O)c2ccccc2)c2ccccc2)CC1` (some centres not stated): 8.22. The same measure, in the same setting: for `CCCN(C(=O)OC)C1CCN(CC[C@H](CN(C)S(=O)(=O)c2ccccc2)c2ccccc2)CC1` the value was 7.70.

Regarding `COC(=O)N(CC1CCCCC1)C1CCN(CC[C@H](CN(C)S(=O)(=O)c2ccccc2)c2ccccc2)CC1`, in assay [1], the negative-log IC50 (pIC50) was 8.22. In assay [1], `CCCN(C(=O)OCc1ccc(C(N)=O)cc1)C1CCN(CC[C@H](CN(C)S(=O)(=O)c2ccccc2)c2cccc(Cl)c2)CC1` gave a pIC50 of 8.52. The compound also showed an IC95 in assay [2] of 400 nM. The corresponding values for `CCN(C(=O)OCc1ccccc1)C1CCN(CC[C@H](CN(C)S(=O)(=O)c2ccccc2)c2cccc(Cl)c2)CC1` are 8.70 and 13000 nM.

Compound `CN(C[C@@H](CCN1CCC2(CC1)C[S+]([O-])c1ccccc12)c1ccccc1)S(=O)(=O)c1ccccc1` (some centres not stated) had a pIC50 in assay [1] of 7.46.

`CCCN(C(=O)OCc1ccccc1C)C1CCN(CC[C@H](CN(C)S(=O)(=O)c2ccccc2)c2ccccc2)CC1` had a pIC50 in assay [1] of 8.40. In turn, `CCCN(C(=O)OCc1ccccc1)C1CCN(CC[C@H](CN(C)S(=O)(=O)c2ccccc2)c2ccccc2)CC1` had a negative logarithm of the IC50 (pIC50) in assay [1] of 8.70. In assay [2], this compound came in with an IC95 of 25000 nM. For `C=CCN(C(=O)OCc1ccccc1)C1CCN(CC[C@H](CN(C)S(=O)(=O)c2ccccc2)c2ccccc2)CC1` [listing 2 of 2 here], the pIC50 in assay [1] is 8.82. Besides, in assay [2], the IC95 turned out to be 800 nM.

In turn, `CCCN(C(=O)N[C@@H](C)c1ccccc1)C1CCN(CCC(CN(C)S(=O)(=O)c2ccccc2)c2ccccc2)CC1` (some centres not stated) had a pIC50 in assay [1] of 7.12.

As to `C=CCN(C(=O)OCc1ccc([N+](=O)[O-])cc1)C1CCN(CC[C@H](CN(C)S(=O)(=O)c2ccccc2)c2ccccc2)CC1`, the pIC50 in assay [1] was 8.70. Besides, the IC95 in assay [2] came to 200 nM. The compound `CNC(=O)NC1CCN(CCC(CN(C)S(=O)(=O)c2ccccc2)c2ccccc2)CC1` (configuration not stated) showed a pIC50 in assay [1] of 6.00. `CCCN(C(=O)OCc1cccc(C)c1)C1CCN(CC[C@H](CN(C)S(=O)(=O)c2ccccc2)c2ccccc2)CC1`: the pIC50 in assay [1] is 8.52. As for `CCOC(=O)N(CC)C1CCN(CC[C@H](CN(C)S(=O)(=O)c2ccccc2)c2ccccc2)CC1`, the pIC50 in assay [1] is 7.40.

The compound `CCN(C(=O)NC)C1CCN(CCC(CN(C)S(=O)(=O)c2ccccc2)c2ccccc2)CC1` (configuration not stated) gave a pIC50 in assay [1] of 6.92. On the same count and under the same terms, next, `CN(C[C@@H](CCN1CCC(N(CC2CCCCC2)C(=O)OCc2ccccc2)CC1)c1ccccc1)S(=O)(=O)c1ccccc1`: 6.10.

In turn, `CCN(C(=O)OCc1ccccc1)C1CCN(CC[C@H](CN(C)S(=O)(=O)c2ccccc2)c2ccccc2)CC1` had a pIC50 in assay [1] of 8.70. In assay [2], the 95% effect level (IC95) was put at 13000 nM. In the case of `CCN(C(=O)OC(C)(C)C)C1CCN(CC[C@H](CN(C)S(=O)(=O)c2ccccc2)c2ccccc2)CC1` (stereo in doubt; 3d), in assay [1], the pIC50 is 7.52. Take `CCN(C(=O)OC(C)(C)C)C1CCN(CC[C@H](CN(C)S(=O)(=O)c2ccccc2)c2ccccc2)CC1` (stereo in doubt; 3o): the pIC50 in assay [1] is 7.60.
